Data: ChEMBL document CHEMBL2163333, “Novel imidazol-1-ylmethyl substituted 1,2,5,6-tetrahydropyrrolo[3,2,1-ij]quinolin-4-ones as potent and selective CYP11B1 inhibitors for the treatment of Cushing's syndrome” (J Med Chem, 2012)
pIC50: −log10 of the molar value.

Tests used:
[1] = target: T1, Cytochrome P450 11B2, mitochondrial (Homo sapiens, UniProt P19099); assay: Inhibition of human CYP11B2 expressed in hamster V79 MZh cells using deoxycorticosterone substrate; type: cell-based
T1 sequence (P19099 whole entry): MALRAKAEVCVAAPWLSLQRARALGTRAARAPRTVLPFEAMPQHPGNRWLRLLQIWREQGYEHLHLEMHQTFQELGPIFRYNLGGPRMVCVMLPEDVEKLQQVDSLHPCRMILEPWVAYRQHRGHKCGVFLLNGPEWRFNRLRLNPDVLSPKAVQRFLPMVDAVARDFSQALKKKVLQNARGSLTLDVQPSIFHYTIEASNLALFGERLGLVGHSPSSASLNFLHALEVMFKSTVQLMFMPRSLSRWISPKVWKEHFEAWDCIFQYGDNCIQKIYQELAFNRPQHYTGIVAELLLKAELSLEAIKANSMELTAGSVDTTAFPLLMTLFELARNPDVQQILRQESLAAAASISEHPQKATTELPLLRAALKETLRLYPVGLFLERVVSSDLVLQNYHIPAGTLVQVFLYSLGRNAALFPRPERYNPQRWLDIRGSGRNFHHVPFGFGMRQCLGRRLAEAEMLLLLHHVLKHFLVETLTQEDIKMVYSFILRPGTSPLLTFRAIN

[2] = species on record: Homo sapiens; assay: Selectivity ratio of IC50 for human CYP11B2 to IC50 for human CYP11B1
[3] = target: T2, Cytochrome P450 11B1, mitochondrial (Homo sapiens, UniProt P15538); assay: Inhibition of human CYP11B1 expressed in hamster V79 MZh cells using deoxycorticosterone substrate; type: cell-based
T2 sequence (P15538 whole entry): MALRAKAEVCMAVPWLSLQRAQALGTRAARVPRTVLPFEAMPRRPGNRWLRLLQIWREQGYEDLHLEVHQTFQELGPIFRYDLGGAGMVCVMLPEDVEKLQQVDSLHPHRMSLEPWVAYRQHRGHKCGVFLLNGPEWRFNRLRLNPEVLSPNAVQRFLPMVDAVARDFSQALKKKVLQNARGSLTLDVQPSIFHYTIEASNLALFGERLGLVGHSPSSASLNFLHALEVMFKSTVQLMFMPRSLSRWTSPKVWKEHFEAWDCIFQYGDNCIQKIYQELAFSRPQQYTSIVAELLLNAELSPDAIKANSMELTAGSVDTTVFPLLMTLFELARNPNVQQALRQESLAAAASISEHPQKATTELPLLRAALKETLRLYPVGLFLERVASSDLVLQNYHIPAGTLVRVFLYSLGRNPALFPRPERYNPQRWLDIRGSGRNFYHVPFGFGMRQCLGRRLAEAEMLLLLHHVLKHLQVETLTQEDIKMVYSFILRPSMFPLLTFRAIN

[4] = species on record: Homo sapiens; assay: Selectivity ratio of IC50 for human placental CYP19 to IC50 for human CYP11B1
[5] = target: T3, Aromatase (Homo sapiens, UniProt P11511); assay: Inhibition of human placental CYP19 using androstenedione substrate
T3 sequence (P11511 whole entry): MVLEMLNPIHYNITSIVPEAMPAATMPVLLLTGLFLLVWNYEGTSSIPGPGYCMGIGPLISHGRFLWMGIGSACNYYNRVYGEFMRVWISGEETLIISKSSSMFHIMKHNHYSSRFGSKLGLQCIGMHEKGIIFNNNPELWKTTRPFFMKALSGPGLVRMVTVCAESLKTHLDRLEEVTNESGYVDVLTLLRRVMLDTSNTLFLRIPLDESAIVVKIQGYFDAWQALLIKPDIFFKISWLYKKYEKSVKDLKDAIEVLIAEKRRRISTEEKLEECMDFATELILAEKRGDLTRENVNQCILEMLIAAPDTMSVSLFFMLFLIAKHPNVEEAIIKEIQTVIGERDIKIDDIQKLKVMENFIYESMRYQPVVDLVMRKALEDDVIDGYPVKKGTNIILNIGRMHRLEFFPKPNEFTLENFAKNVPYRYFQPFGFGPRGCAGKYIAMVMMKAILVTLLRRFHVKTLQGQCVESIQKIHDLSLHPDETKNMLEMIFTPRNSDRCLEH

[6] = species on record: Homo sapiens; assay: Selectivity ratio of IC50 for human CYP17 to IC50 for human CYP11B1
[7] = target: T4, Steroid 17-alpha-hydroxylase/17,20 lyase (Homo sapiens, UniProt P05093); assay: Inhibition of human CYP17 expressed in Escherichia coli using progesterone substrate
T4 sequence (P05093 whole entry): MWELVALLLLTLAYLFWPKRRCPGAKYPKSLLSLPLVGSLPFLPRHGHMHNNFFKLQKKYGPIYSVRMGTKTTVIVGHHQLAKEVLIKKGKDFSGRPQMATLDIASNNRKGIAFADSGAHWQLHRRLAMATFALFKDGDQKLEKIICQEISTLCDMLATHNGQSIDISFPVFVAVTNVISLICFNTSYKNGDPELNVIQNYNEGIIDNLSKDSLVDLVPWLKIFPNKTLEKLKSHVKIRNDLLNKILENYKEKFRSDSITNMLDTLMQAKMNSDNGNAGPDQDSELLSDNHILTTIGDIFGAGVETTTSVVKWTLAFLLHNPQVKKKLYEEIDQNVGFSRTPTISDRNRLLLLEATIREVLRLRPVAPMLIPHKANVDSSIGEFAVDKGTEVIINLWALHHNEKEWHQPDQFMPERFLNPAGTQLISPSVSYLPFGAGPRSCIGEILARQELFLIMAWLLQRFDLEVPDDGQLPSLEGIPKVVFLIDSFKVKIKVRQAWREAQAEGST

[8] = target: T5, Cytochrome P450 11B1, mitochondrial (Rattus norvegicus, UniProt P15393); assay: Inhibition of rat CYP11B1 at 2 uM
T5 sequence (P15393 whole entry): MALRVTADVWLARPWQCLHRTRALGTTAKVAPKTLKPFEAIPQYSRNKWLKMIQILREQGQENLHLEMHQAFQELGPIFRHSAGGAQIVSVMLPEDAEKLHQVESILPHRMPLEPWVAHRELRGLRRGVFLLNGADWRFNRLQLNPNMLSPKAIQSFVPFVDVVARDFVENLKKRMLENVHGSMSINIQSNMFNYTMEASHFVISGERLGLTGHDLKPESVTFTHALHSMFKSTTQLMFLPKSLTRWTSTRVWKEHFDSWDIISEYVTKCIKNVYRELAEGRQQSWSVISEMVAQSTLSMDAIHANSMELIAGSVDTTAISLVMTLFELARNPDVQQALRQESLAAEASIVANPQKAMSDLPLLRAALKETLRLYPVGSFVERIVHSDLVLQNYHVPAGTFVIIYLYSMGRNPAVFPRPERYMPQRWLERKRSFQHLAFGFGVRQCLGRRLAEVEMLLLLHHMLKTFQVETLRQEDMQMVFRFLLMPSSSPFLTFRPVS

pIC50 [1]	Ratio IC50 [2]	pIC50 [3]	Ratio IC50 [4]	pIC50 [5]	Ratio IC50 [6]	pIC50 [7]	inhibition at 2 µM [8] [%]	SMILES
7.33	2.4	7.70	–	–	–	–	–	O=C1CCc2cc(C(c3ccco3)n3ccnc3)cc3c2N1CC3 (configuration not stated)
–	–	7.99	–	–	–	–	–	O=C1CCc2cc(C(C3CC3)n3ccnc3)cc3c2N1CC3 (stereo in doubt; (+)-4)
7.72	0.5	7.40	–	–	–	–	–	O=C1CCc2cc(C(c3ccccc3F)n3ccnc3)cc3c2N1CC3 (configuration not stated)
6.98	2.6	7.40	1.1	7.37	> 125	< 5.30	–	COc1ccc(C(c2cc3c4c(c2)CCN4C(=O)CC3)n2ccnc2)cc1 (configuration not stated)
7.74	0.6	7.54	–	–	–	–	–	O=C1CCc2cc(C(c3cccc(F)c3)n3ccnc3)cc3c2N1CC3 (configuration not stated)
8.42	2.7	8.85	> 357	< 6.30	1110	5.81	–	CC(C)C(c1cc2c3c(c1)CCN3C(=O)CC2)n1ccnc1 (configuration not stated)
7.82	0.9	7.77	–	–	–	–	–	CC(c1cc2c3c(c1)CCN3C(=O)CC2)n1ccnc1 (configuration not stated)
7.62	–	8.66	–	6.64	–	5.54	91	O=C1CCc2cc(C(C3CC3)n3ccnc3)cc3c2N1CC3 (racemic)
7.00	5.3	7.72	0.9	7.77	> 260	< 5.30	–	C=C(c1cc2c3c(c1)CCN3C(=O)CC2)n1ccnc1
8.38	1.2	8.47	–	–	–	–	–	O=C1CCc2cc(C(C3CCC3)n3ccnc3)cc3c2N1CC3 (configuration not stated)
6.51	4.4	7.15	–	–	–	–	–	N#Cc1ccc(C(c2cc3c4c(c2)CCN4C(=O)CC3)n2ccnc2)cc1 (configuration not stated)
7.06	0.8	6.96	–	–	–	–	–	COc1cccc(C(c2cc3c4c(c2)CCN4C(=O)CC3)n2ccnc2)c1 (configuration not stated)
6.07	1.9	6.36	–	–	–	–	–	CC(c1cc2c3c(c1)CCN3C(=O)CC2)(n1ccnc1)n1ccnc1
7.54	1.1	7.57	–	–	–	–	–	O=C1CCc2cc(C(c3ccc(F)cc3)n3ccnc3)cc3c2N1CC3 (configuration not stated)
–	–	8.82	–	–	–	–	–	O=C1CCc2cc(C(C3CC3)n3ccnc3)cc3c2N1CC3 (single isomer, unassigned; (-))
8.24	0.9	8.19	–	–	–	–	–	CCC(c1cc2c3c(c1)CCN3C(=O)CC2)n1ccnc1 (configuration not stated)
7.74	1.4	7.89	–	–	–	–	–	O=C1CCc2cc(C(c3cccs3)n3ccnc3)cc3c2N1CC3 (configuration not stated)
7.48	0.7	7.30	–	–	–	–	–	O=C1CCc2cc(C(c3ccccc3)n3ccnc3)cc3c2N1CC3 (configuration not stated)
6.52	2.1	6.84	–	–	–	–	–	N#Cc1cccc(C(c2cc3c4c(c2)CCN4C(=O)CC3)n2ccnc2)c1 (configuration not stated)
